# Assay results as given in ChEMBL document CHEMBL4800727 (2021).
# Columns and labels:
# [1] = target: GABA-A receptor; anion channel; test: GPCRScan assay: inhibition of GABAA; type: protein-complex assay, Rattus norvegicus; design: radioligand conc. used [nm] 9.50 – 25.0, parental cells brain tissue
# [2] = target: Alpha-2A adrenergic receptor (Homo sapiens) (UniProt P08913); conditions: Compound concentration 10.0 uM
# [3] = target: Tyrosine-protein kinase ITK/TSK (Homo sapiens) (UniProt Q08881); test: IL2-inducible T-cell kinase Millipore kinase panel; conditions: Compound concentration 10.0 uM
# [4] = target: B2 bradykinin receptor (Homo sapiens) (UniProt P30411); test: hBK2 Cerep panel; conditions: Compound concentration 10.0 uM
# [5] = target: Alpha-2B adrenergic receptor (Homo sapiens, UniProt P18089); test: GPCRScan assay: inhibition of Alpha2B; design: radioligand conc. used [nm] 1.5 – 2.0, parental cells HEKT
# [6] = target: Tyrosine-protein kinase Tec (Homo sapiens) (UniProt P42680); test: tec protein tyrosine kinase (activated) Millipore kinase panel; conditions: Compound concentration 10.0 uM
# [7] = target: Neuropeptide Y receptor type 2 (Homo sapiens) (UniProt P49146); test: hNPY2 Cerep panel; conditions: Compound concentration 10.0 uM
# [8] = target: Ephrin type-A receptor 3 (Homo sapiens) (UniProt P29320); test: EPH receptor A3 Millipore kinase panel; conditions: Compound concentration 10.0 uM
# [9] = target: Dual 3',5'-cyclic-AMP and -GMP phosphodiesterase 11A (Homo sapiens, UniProt Q9HCR9); test: hPDE11A4 PDE scan
# [10] = target: Gastrin/cholecystokinin type B receptor (Homo sapiens) (UniProt P32239); test: hCCK2 Cerep panel; conditions: Compound concentration 10.0 uM
# [11] = target: Serine/threonine-protein kinase 4 (Homo sapiens) (UniProt Q13043); test: serine/threonine kinase 4 Millipore kinase panel; conditions: Compound concentration 10.0 uM
# [12] = target: Serine/threonine-protein kinase Sgk3 (Homo sapiens) (UniProt Q96BR1); test: serum/glucocorticoid regulated kinase family, member 3 Millipore kinase panel; conditions: Compound concentration 10.0 uM
# [13] = target: Cannabinoid receptor 1 (Homo sapiens) (UniProt P21554); test: hCB1 Cerep panel; conditions: Compound concentration 10.0 uM
# [14] = target: Death-associated protein kinase 3 (Homo sapiens) (UniProt O43293); test: death-associated protein kinase 3 Millipore kinase panel; conditions: Compound concentration 10.0 uM
# [15] = target: Mitogen-activated protein kinase 1 (Homo sapiens) (UniProt P28482); test: mitogen-activated protein kinase 1 Millipore kinase panel; conditions: Compound concentration 10.0 uM
# [16] = target: cGMP-inhibited 3',5'-cyclic phosphodiesterase 3A (Homo sapiens, UniProt Q14432); test: hPDE3A Cerep panel; conditions: Compound concentration 10.0 uM
# [17] = target: Serine/threonine-protein kinase Nek7 (Homo sapiens) (UniProt Q8TDX7); test: NIMA -related kinase 7 Millipore kinase panel; conditions: Compound concentration 10.0 uM
# [18] = target: Macrophage-stimulating protein receptor (Homo sapiens) (UniProt Q04912); test: macrophage stimulating 1 receptor Millipore kinase panel; conditions: Compound concentration 10.0 uM
# [19] = target: Tyrosine-protein kinase Fgr (Homo sapiens) (UniProt P09769); test: Gardner-Rasheed feline sarcoma viral (v-fgr) oncogene homolog Millipore kinase panel; conditions: Compound concentration 10.0 uM
# Homo sapiens [20] = organism: Homo sapiens; test: hSigma Cerep panel; conditions: Compound concentration 10.0 uM
# [21] = target: Adenosine receptor A2a (Homo sapiens) (UniProt P29274); test: hA2A Cerep panel; conditions: Compound concentration 10.0 uM
# [22] = target: cAMP and cAMP-inhibited cGMP 3',5'-cyclic phosphodiesterase 10A (Homo sapiens, UniProt Q9Y233); test: hPDE10A2 PDE scan
# [23] = target: T1, Alpha-1B adrenergic receptor (Homo sapiens) (UniProt P35368); test: hAb1 Cerep panel; conditions: Compound concentration 10.0 uM
# T1 sequence (whole entry): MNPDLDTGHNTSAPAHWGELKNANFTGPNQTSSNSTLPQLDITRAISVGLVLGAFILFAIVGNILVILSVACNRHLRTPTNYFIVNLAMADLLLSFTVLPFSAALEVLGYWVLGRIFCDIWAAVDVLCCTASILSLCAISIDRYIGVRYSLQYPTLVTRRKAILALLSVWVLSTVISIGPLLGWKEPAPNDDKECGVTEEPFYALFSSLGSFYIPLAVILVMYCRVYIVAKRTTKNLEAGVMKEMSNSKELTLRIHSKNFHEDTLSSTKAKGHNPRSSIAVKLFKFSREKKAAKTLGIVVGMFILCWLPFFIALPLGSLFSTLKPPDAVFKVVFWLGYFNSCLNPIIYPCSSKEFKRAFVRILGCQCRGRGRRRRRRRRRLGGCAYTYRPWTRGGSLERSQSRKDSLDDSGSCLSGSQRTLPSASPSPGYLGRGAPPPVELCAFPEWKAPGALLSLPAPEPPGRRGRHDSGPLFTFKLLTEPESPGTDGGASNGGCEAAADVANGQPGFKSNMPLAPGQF
# [24] = target: Neuropeptide Y receptor type 1 (Homo sapiens) (UniProt P25929); test: hNPY1 Cerep panel; conditions: Compound concentration 10.0 uM
# [25] = target: Serine/threonine-protein kinase PAK 6 (Homo sapiens) (UniProt Q9NQU5); test: p21 protein -activated kinase 6 Millipore kinase panel; conditions: Compound concentration 10.0 uM
# [26] = target: Substance-K receptor (Homo sapiens) (UniProt P21452); test: hNK2 Cerep panel; conditions: Compound concentration 10.0 uM
# [27] = target: Ephrin type-B receptor 3 (Homo sapiens) (UniProt P54753); test: EPH receptor B3 Millipore kinase panel; conditions: Compound concentration 10.0 uM
# [28] = target: Delta-type opioid receptor (Homo sapiens) (UniProt P41143); test: hOP1 Cerep panel; conditions: Compound concentration 10.0 uM
# [29] = target: Adenosine receptor A1 (Homo sapiens) (UniProt P30542); test: hA1 Cerep panel; conditions: Compound concentration 10.0 uM
# [30] = target: Serine/threonine-protein kinase MARK1 (Homo sapiens) (UniProt Q9P0L2); test: MAP/microtubule affinity-regulating kinase 1 Millipore kinase panel; conditions: Compound concentration 10.0 uM
# [31] = target: Adenosine receptor A3 (Homo sapiens) (UniProt P0DMS8); test: hA3 Cerep panel; conditions: Compound concentration 10.0 uM
# [32] = target: cAMP and cAMP-inhibited cGMP 3',5'-cyclic phosphodiesterase 10A (Mus musculus) (UniProt Q8CA95)
# [33] = target: Mitogen-activated protein kinase kinase kinase 7 (Homo sapiens) (UniProt O43318); test: mitogen-activated protein kinase kinase kinase 7 Millipore kinase panel; conditions: Compound concentration 10.0 uM
# [34] = target: Cholecystokinin receptor type A (Homo sapiens) (UniProt P32238); test: hCCKA Cerep panel; conditions: Compound concentration 10.0 uM
# Rattus norvegicus = organism: Rattus norvegicus; test: rSKCa channel Cerep panel; conditions: Compound concentration 10.0 uM
# [35] = target: Macrophage colony-stimulating factor 1 receptor (Homo sapiens) (UniProt P07333); test: colony stimulating factor 1 receptor Millipore kinase panel; conditions: Compound concentration 10.0 uM
# [36] = target: Mast/stem cell growth factor receptor Kit (Homo sapiens) (UniProt P10721); test: v-kit Hardy-Zuckerman 4 feline sarcoma viral oncogene homolog Millipore kinase panel; conditions: Compound concentration 10.0 uM
# [37] = target: D(1B) dopamine receptor (Homo sapiens) (UniProt P21918); conditions: Compound concentration 10.0 uM
# [38] = target: Tyrosine-protein kinase TXK (Homo sapiens) (UniProt P42681); test: TXK tyrosine kinase Millipore kinase panel; conditions: Compound concentration 10.0 uM
# [39] = target: Somatostatin receptor (Mus musculus) (UniProt P30935+O08858+P30875+P30873+P49660); test: mSST Cerep panel; type: protein assay; conditions: Compound concentration 10.0 uM
# [40] = target: 5-hydroxytryptamine receptor 7 (Homo sapiens, UniProt P34969); test: GPCRScan assay: inhibition of 5-HT7A; design: radioligand conc. used [nm] 5.0 – 6.0, parental cells Stable HEK
# [41] = target: Neurotensin receptor type 1 (Homo sapiens) (UniProt P30989); test: hNT1 Cerep panel; conditions: Compound concentration 10.0 uM
# [42] = target: Translocator protein (Homo sapiens) (UniProt P30536); test: hTSPO Cerep panel; conditions: Compound concentration 10.0 uM
# Homo sapiens [43] = organism: Homo sapiens; test: hN muscle type alpha Cerep panel; conditions: Compound concentration 10.0 uM
# [44] = target: Serine/threonine-protein kinase Sgk2 (Homo sapiens) (UniProt Q9HBY8); test: serum/glucocorticoid regulated kinase 2 Millipore kinase panel; conditions: Compound concentration 10.0 uM
# Alpha-2B adrenergic receptor, sequence (P18089 whole entry): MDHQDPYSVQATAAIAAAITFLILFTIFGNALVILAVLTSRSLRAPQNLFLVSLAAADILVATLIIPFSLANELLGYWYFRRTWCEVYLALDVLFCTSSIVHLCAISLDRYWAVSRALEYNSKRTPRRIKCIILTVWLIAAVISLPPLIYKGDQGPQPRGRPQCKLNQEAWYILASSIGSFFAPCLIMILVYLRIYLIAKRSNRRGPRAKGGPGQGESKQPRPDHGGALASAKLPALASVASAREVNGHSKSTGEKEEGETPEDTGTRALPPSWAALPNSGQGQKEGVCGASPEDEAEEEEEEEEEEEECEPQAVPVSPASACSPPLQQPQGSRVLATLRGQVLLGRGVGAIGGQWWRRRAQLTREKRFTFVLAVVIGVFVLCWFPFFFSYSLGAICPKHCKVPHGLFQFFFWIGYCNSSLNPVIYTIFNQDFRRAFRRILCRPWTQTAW
# cAMP and cAMP-inhibited cGMP 3',5'-cyclic phosphodiesterase 10A, sequence (Q9Y233 whole entry): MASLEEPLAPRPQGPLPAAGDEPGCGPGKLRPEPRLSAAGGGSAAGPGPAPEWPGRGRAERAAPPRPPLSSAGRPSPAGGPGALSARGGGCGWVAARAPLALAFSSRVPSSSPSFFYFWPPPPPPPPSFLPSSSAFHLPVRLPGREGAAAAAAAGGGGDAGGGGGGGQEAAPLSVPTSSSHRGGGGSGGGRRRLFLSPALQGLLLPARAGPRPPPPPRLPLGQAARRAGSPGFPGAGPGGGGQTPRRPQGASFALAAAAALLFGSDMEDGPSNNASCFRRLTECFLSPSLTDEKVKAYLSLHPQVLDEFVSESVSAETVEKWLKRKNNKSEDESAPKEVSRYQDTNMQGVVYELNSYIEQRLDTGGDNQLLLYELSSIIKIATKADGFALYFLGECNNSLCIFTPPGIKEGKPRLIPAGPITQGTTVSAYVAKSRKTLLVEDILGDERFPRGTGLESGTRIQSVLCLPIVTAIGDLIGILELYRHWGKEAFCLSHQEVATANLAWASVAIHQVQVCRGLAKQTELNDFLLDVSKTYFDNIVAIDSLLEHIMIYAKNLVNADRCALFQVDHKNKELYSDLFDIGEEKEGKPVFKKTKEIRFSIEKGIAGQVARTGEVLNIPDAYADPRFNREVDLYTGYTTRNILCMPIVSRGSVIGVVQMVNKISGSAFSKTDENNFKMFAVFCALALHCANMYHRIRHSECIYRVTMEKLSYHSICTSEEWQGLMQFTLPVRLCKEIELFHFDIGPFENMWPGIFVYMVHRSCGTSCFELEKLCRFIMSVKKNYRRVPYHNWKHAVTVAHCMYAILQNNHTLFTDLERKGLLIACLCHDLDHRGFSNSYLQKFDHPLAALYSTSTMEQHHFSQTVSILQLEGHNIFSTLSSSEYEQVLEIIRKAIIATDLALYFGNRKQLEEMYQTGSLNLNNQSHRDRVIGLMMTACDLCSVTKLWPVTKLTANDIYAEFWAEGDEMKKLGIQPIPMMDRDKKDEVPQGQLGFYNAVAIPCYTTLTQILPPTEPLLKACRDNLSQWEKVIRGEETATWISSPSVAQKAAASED
# Tyrosine-protein kinase Tec (Homo sapiens), sequence (P42680 whole entry): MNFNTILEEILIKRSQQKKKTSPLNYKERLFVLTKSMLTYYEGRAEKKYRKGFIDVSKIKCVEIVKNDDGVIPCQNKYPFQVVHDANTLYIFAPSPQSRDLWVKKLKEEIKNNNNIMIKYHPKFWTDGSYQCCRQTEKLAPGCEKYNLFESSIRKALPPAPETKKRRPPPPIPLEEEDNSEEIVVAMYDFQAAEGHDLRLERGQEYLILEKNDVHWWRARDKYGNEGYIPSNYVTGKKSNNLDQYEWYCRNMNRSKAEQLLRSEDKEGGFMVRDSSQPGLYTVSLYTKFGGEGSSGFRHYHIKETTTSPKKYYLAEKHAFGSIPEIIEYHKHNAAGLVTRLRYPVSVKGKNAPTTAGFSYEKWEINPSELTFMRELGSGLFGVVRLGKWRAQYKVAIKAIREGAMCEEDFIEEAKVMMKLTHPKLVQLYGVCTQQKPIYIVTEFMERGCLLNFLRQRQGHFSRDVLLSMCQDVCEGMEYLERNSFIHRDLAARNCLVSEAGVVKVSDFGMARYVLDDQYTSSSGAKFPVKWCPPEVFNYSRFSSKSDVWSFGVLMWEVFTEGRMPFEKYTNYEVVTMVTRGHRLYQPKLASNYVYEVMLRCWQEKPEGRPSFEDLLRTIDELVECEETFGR
# D(1B) dopamine receptor (Homo sapiens), sequence (P21918 whole entry): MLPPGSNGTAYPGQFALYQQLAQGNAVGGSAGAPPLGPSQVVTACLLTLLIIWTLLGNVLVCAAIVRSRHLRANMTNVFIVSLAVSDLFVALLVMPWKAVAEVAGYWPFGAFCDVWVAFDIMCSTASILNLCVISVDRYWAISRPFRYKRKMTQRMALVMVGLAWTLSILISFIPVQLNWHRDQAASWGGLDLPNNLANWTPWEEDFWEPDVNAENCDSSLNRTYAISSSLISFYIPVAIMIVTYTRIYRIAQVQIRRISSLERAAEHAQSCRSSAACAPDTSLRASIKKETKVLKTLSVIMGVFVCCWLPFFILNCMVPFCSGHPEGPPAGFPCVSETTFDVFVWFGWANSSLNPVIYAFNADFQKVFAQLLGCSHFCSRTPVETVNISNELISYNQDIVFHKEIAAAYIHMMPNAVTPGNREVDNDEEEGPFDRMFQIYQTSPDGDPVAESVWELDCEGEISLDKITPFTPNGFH
# Tyrosine-protein kinase ITK/TSK (Homo sapiens), sequence (Q08881 whole entry): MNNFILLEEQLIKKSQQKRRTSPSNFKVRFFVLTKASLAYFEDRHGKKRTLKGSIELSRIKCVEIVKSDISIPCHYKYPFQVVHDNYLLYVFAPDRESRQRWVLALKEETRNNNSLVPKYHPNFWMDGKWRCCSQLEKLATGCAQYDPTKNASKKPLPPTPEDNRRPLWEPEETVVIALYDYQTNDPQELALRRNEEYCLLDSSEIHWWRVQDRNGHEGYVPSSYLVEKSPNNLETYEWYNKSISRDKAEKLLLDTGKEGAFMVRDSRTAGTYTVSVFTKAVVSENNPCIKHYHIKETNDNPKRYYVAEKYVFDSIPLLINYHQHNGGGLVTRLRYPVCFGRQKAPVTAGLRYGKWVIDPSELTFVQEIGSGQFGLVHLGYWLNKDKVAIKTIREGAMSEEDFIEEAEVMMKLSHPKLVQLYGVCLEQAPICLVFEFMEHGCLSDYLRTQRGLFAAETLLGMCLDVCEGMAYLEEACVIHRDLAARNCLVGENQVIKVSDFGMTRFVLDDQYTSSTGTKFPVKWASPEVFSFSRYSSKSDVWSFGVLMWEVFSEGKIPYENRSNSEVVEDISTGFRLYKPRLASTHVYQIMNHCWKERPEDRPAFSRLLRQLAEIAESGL
# Macrophage-stimulating protein receptor (Homo sapiens), sequence (Q04912 25-304 limits assumed): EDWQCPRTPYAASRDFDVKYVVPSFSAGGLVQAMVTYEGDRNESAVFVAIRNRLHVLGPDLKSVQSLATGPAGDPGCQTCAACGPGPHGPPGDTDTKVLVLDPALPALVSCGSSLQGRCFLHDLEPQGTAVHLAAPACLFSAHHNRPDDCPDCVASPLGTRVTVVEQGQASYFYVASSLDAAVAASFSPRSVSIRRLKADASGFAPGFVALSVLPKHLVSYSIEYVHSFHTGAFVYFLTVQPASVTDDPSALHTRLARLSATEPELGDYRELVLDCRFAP
# Macrophage-stimulating protein receptor (Homo sapiens), sequence (Q04912 310-1400 limits assumed): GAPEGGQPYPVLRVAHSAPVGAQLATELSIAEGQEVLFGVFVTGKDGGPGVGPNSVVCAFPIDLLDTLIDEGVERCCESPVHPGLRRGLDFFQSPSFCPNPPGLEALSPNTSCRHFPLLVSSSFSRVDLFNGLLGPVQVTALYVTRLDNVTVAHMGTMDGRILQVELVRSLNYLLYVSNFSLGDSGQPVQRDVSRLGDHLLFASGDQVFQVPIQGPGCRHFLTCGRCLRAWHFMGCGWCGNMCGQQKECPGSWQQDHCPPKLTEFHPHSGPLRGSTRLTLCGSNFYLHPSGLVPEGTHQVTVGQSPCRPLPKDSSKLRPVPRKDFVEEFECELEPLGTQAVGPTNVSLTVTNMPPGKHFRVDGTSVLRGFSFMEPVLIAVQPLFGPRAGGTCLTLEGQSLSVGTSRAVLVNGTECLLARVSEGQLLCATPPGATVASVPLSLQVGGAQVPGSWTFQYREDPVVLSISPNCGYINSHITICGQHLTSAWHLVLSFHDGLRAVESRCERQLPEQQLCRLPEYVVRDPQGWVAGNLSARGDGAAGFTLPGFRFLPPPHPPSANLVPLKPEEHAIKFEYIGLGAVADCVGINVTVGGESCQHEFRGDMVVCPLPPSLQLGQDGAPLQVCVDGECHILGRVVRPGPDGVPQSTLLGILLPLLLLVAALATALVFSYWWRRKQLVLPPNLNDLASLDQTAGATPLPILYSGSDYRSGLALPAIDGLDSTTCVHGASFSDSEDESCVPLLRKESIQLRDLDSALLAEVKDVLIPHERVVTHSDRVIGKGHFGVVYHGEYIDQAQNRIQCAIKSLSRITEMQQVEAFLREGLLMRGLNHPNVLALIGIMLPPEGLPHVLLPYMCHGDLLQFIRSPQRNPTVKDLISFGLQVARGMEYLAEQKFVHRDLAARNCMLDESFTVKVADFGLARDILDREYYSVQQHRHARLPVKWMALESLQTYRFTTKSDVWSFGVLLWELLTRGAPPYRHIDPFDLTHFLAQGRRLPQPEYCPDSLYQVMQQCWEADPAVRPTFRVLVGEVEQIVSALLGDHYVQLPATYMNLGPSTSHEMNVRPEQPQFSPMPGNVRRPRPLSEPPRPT
# Neuropeptide Y receptor type 1 (Homo sapiens), sequence (P25929 whole entry): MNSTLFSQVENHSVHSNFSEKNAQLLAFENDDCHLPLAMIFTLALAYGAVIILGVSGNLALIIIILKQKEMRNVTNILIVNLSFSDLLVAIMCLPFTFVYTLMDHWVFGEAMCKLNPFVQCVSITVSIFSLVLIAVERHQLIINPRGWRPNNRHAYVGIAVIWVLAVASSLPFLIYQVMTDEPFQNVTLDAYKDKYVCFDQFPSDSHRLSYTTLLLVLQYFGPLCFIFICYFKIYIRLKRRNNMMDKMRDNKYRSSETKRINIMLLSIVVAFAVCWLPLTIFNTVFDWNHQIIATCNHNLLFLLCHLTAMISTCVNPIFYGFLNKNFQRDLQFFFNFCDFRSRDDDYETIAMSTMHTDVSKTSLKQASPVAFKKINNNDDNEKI
compound,measurement,setting,value
c1ccc(C2CCN(c3cnc4c(N5CCOCC5)nccn34)CC2)cc1,Ki,[1],1.82 µM
same,inhibition,[2],34.6%
COCCc1ccc(-c2c(C)nc3c(N4CCOCC4)ccnn23)cn1 [JNJ-42396302],inhibition,[3],1%
same,effect,[4],7.1%
same,Ki,[5],> 10 µM
same,pKi,[5],< 5
same,inhibition,[6],7%
same,effect,[7],4.45%
same,inhibition,[8],4%
same,Ki,[9],46 µM
same,effect,[10],-5.55%
same,inhibition,[11],-7%
same,inhibition,[12],1%
same,effect,[13],4.05%
same,inhibition,[14],-2%
same,inhibition,[15],1%
same,effect,[16],6%
same,inhibition,[17],2%
same,inhibition,[18],3%
same,inhibition,[19],7%
same,effect,Homo sapiens [20],1.55%
same,effect,[21],17.8%
same,Ki,[22],0.013 µM
same,effect,[23],6.55%
same,effect,[24],0.15%
same,inhibition,[25],5%
same,effect,[26],9.7%
same,inhibition,[27],3%
same,effect,[28],8.95%
same,effect,[29],11.3%
same,inhibition,[30],-6%
same,effect,[31],8.4%
same,Increase in cAMP,[32],10 fold
same,inhibition,[33],5%
same,effect,[34],-19.6%
same,effect,Rattus norvegicus,7.4%
same,inhibition,[35],4%
same,inhibition,[36],4%
same,inhibition,[37],25.3%
same,inhibition,[38],6%
same,effect,[39],2.8%
same,Ki,[40],8.74 µM
same,effect,[41],12.3%
same,effect,[42],2.8%
same,effect,Homo sapiens [43],-7.3%
same,inhibition,[44],-3%
